Counter-ions that a name gives are not always drawn. Values belong to the compound of their own block, whether it stands above or below them.
Columns and labels:
[1] = test system: MDA-MB-231 cells; assay: MTT cell viability assay, MDA-MB-231 cells; format: cell-based, human; conditions: for IC50 / fold shift = IC50 (−OLAP)/IC50 (+OLAP): MDA-MB-231, 72 h; for IC50: MTT, read-out: IC50, –OLAP (compound alone); for fold shift = IC50 (−OLAP)/IC50 (+OLAP): Olaparib 10 μM
Description: (§1) Following treatment, solutions were removed, thiazolyl blue tetrazolium bromide (MTT, 0.5 mg/mL) reagent was added to the cells, and plates were incubated for 4 h. The reduced purple formazan crystals were solubilized with 100 μL of DMSO, and the absorbance at 570 nm (620 nm as reference wavelength) was measured using a microplate reader. The average in percent reduction of cell viability was expressed relative to untreated control cells. The combinatorial effect was evaluated by the generation of the compound dose–response curve and a shift of the IC50 value in the presence or absence of Olaparib (graphed and calculated using GraphPad Prism software).

[2] = test system: MDA-MB-231 cells; assay: Drug interaction analysis (Chou and Talalay combination index) with Olaparib from MTT data; format: cell-based, human; conditions: MDA-MB-231, Olaparib 10 μM, result in words
Description: as §1
Dose–effect curves for single agents and their combinations were generated from the MTT assay data, and the combination index (CI) values were calculated using CalcuSyn and CompuSyn software (Biosoft, Cambridge, UK) as established by Chou and Talalay.[43] CI < 0.9 indicates synergism, CI = 0.9–1.0 indicates additive, and CI > 1 indicates antagonism. GraphPad Prism Software was used to generate a 3-color scale based on CI values obtained, where synergism is represented by green, additive by yellow, and antagonism by red. The colors of each CI value were interpolated in between these constraints accordingly.

[3] = test system: TNBC and lung cancer cells; design: method as in PMID 31898884, PMID 36702871; conditions: sub-cytotoxic concentrations of Ru-PIP; cited from earlier work
[4] = test system: MCF7 3D tumor spheroids; assay: Spheroid growth inhibition, MCF7 spheroids; format: cell-based, human; conditions: compound 1 μM in combination with Olaparib 10 μM
Description: (§2) Spheroids were grown as described initially. […] Spheroids were treated with the identified combinations and single drugs alone for 72 h. Every other day thereafter, 50% of the treatment-containing medium was replaced. Spheroids were imaged every three days for a period of 12 days using a microscope attached to a digital camera. The structural integrity of spheroids following treatments was observed, and the volume was measured as initially described.

[5] = octanol/water partition coefficient; source not given; cited from earlier work
[6] = test system: MCF10A cells; assay: MTT cell viability assay, MCF10A normal breast cells; format: cell-based; conditions: Homo sapiens, MCF-10A, 72 h, single agent, read-out: IC50 MCF10A, –OLAP (single agent)
Description: as §1, with “Cells were seeded at 5 × 10^3 cells/well for MCF7 cells and 1 × 10^4 cells/well for MDA-MB-231 and MCF10A cells, respectively, in 96-well plates, allowed to adhere for 24 h, and treated as described in the main text. Following” for “Following”

[7] = test system: wild-type zebrafish (Danio rerio) embryos; conditions: in vivo
Description: Wild-type zebrafish embryos were obtained from breeding facilities at Danio Assay Laboratories Sdn.Bhd. (Universiti Putra Malaysia). […] Danio-SprintM embryo media were used as a control. Survival and hatching rates were observed under a microscope attached with a digital camera and imaged at 24, 48, 72, and 96 hpf. […] Four lethal endpoints were evaluated including coagulated embryos, lack of somite formation, non-detachment of the tail, and lack of heartbeat. All these characteristics were recorded every 24 hpf, except the heartbeat, which is visible after 48 hpf.

[8] = test system: MDA-MB-231R cells; assay: Clonogenic survival assay, Olaparib-resistant MDA-MB-231R cells; format: cell-based, human
Description: The Olaparib-resistant MDA-MB-231 cell line (MDA-MB-231R) was developed from the parental MDA-MB-231 cell line by long-term drug exposure (∼8 months, 10–100 μM Olaparib) in a similar manner described by Kim et al.[45] MDA-MB-231 cells were seeded at a density of 1.5 × 10^5 cells in a 25 cm^2 flask and allowed to adhere for 24 h. Cells were treated with a starting Olaparib concentration of 10 μM, and treatments were refreshed every 3 days. After each week, the confluency was assessed: if confluency is <50%, the treatment was stopped; if confluency is at 50–70%, the treatment was maintained; and if confluency is over 70%, a portion of the cells was frozen. When the cells adapted to a new drug concentration, cells were reseeded at a density of 1.5 × 10^5 cells in a new 25 cm^2 flask and allowed to adhere before the next exposure to the increased concentration of Olaparib. This procedure was repeated to achieve a final concentration of Olaparib of 100 μM. Following this, MDA-MB-231R cells were maintained in a low concentration of Olaparib (10 μM) to preserve resistance. […]
Cells were seeded at 1 × 10^3 cells/well in 6-well plates, allowed to adhere for 24 h, and treated as described in the main text. […] Individual colonies were counted using ImageJ software, and the survival fraction was determined (normalized to controls).

[9] = test system: MDA-MB-231 3D tumor spheroids; assay: Spheroid growth inhibition, MDA-MB-231 spheroids; format: cell-based, human; conditions: compound 1 μM in combination with Olaparib 10 μM
Description: as §2

[10] = test system: MCF7 cells; assay: MTT cell viability assay, MCF7 cells; format: cell-based, human; conditions: for IC50: Homo sapiens, MCF7, 72 h, MTT, single agent, read-out: IC50 MCF7, –OLAP (single agent)
Description: as §1, with “Cells were seeded at 5 × 10^3 cells/well for MCF7 cells and 1 × 10^4 cells/well for MDA-MB-231 and MCF10A cells, respectively, in 96-well plates, allowed to adhere for 24 h, and treated as described in the main text. Following” for “Following”

[11] = test system: MDA-MB-231 cells; assay: Clonogenic survival assay, MDA-MB-231 cells; format: cell-based; conditions: Homo sapiens; MDA-MB-231, clonogenic, 72 h treatment; read-out: IC50 values of OLAP, – Compound
Description: (§3) Cells were seeded at 1 × 10^3 cells/well in 6-well plates, allowed to adhere for 24 h, and treated as described in the main text. After treatment, solutions were removed, and cells were cultured in compound-free medium for 7–10 days to allow colony formation. Cells were then washed (1× PBS, twice), fixed (ice-cold 100% methanol, 15–20 min, 4 °C), and stained (0.5% crystal violet solution, 20 min). The staining solution was washed with water, and images were photographed with a digital camera. Individual colonies were counted using ImageJ software, and the survival fraction was determined (normalized to controls).

[12] = test system: MDA-MB-231 cells; conditions: 72 h, 10 µM
Description: Cells were seeded at 3 × 10^5 cells/well in 6-well plates, allowed to adhere for 24 h, and treated as described in the main text. After treatment, cells were trypsinized and washed with 1× PBS twice. This was followed by the addition of 500 μL of 1× binding buffer and 5 μL of Annexin V-FITC (Invitrogen). The cell-containing mixture was incubated for 20 min at RT. A total of 5 μL of PI (20 μg/mL) was added prior to flow cytometric analysis using a flow cytometer, and results were analyzed using NovoExpress software. For each sample, a minimum of 10,000 cells were counted.

[13] = test system: MCF7 cells; assay: Clonogenic survival assay, MCF7 cells; format: cell-based; conditions: Homo sapiens, 72 h treatment, read-out: IC50 values of OLAP, – Compound
Description: as §3

IC50 ([1]; Homo sapiens, single agent): 12.1 ± 3 µM
SMILES: O=c1[nH]cc(F)c(=O)[nH]1 [Fluorouracil, reference compound]

IC50 ([1]; Homo sapiens, single agent): 25.1 ± 2.4 µM
IC50 [10]: 22.5 ± 4.1 µM
SMILES: COc1cc(/C=C/C(=O)CC(=O)/C=C/c2ccc(O)c(OC)c2)ccc1O [Curcumin, reference compound]
day of complete disintegration of spheroids [4]: 9 days
Log P [5]: 4.12
Synergy with Olaparib (CI scores of less than 0.9 considered synergistic) [2]: synergistic over most of the tested concentrations
IC50 [6]: 37.4 ± 6 µM
hatching rate [7]: neither 10 nor Curcumin impacted the hatching rate significantly
inhibition of colony formation ([8]; MDA-MB-231R, compound 1 μM alongside Olaparib 0.1–100 μM, 72 h): retains the ability to inhibit colony formation in a similar manner to the parental MDA-MB-231 cells
day of complete disintegration of spheroids [9]: 6 days

IC50 ([1]; single agent): 11.6 ± 3.2 µM
fold shift = IC50 (−OLAP)/IC50 (+OLAP) [1]: 6.8
SMILES: Oc1ccc(-c2nc3c4ccc[n+]5c4c4c(ccc[n+]4[Ru-4]546([n+]5cccc7ccc8ccc[n+]4c8c75)[n+]4cccc5ccc7ccc[n+]6c7c54)c3[nH]2)cc1 [Compound 4, [Ru(phen)2(H-PIP)]^2+]
Synergy with Olaparib (CI scores of less than 0.9 considered synergistic) [2]: additive relationship with Olaparib

IC50 ([1]; single agent): 29.2 ± 3.7 µM
fold shift = IC50 (−OLAP)/IC50 (+OLAP) [1]: 3.7
SMILES: c1ccc(-c2nc3c4ccc[n+]5c4c4c(ccc[n+]4[Ru-4]546([n+]5cccc7ccc8ccc[n+]4c8c75)[n+]4cccc5ccc7ccc[n+]6c7c54)c3[nH]2)cc1 [Compound 3, [Ru(phen)2(PIP)]^2+]
Synergy with Olaparib (CI scores of less than 0.9 considered synergistic) [2]: additive relationship with Olaparib

IC50 ([1]; single agent): > 100 µM
fold shift = IC50 (−OLAP)/IC50 (+OLAP) [1]: >1.3
SMILES: [Ru+2].c1ccc(-c2ccccn2)nc1.c1ccc(-c2ccccn2)nc1.c1ccc(-c2nc3c4cccnc4c4ncccc4c3[nH]2)cc1 [Compound 1, [Ru(bpy)2(PIP)]^2+]

IC50 ([1]; Homo sapiens, single agent): > 100 µM
SMILES: O=c1c(O)c(-c2ccc(O)c(O)c2)oc2cc(O)cc(O)c12 [Quercetin, reference compound]

The remaining lines, values behind:

SMILES: Nc1ccn([C@@H]2O[C@H](CO)[C@@H](O)C2(F)F)c(=O)n1 [gemcitabine hydrochloride, reference compound]
IC50 ([1]; Homo sapiens, single agent): 1.6 ± 0.8 µM
fold shift = IC50 (−OLAP)/IC50 (+OLAP) [1]: 2.7

SMILES: Cc1cc[n+]2c(c1)-c1cc(C)cc[n+]1[Ru-4]213([n+]2ccc(C)cc2-c2cc(C)cc[n+]21)[n+]1cccc2c4nc5cc(C)cc(C)c5nc4c4ccc[n+]3c4c21 [Compound 7, [Ru(4,4′dmb)2(dmdppz)]^2+]
IC50 ([1]; single agent): 34.3 ± 0.5 µM
fold shift = IC50 (−OLAP)/IC50 (+OLAP) [1]: 2.3
Synergy with Olaparib (CI scores of less than 0.9 considered synergistic) [2]: additive relationship with Olaparib

SMILES: [Ru+2].c1ccc(-c2nc3c4cccnc4c4ncccc4c3[nH]2)cc1.c1ccc2nc3c4cccnc4c4ncccc4c3nc2c1.c1ccc2nc3c4cccnc4c4ncccc4c3nc2c1 [Ru-PIP, [Ru(dppz)2(PIP)]^2+]
increase in Olaparib potency [3]: > 300 fold

SMILES: Cc1cc(C)c2nc3c4ccc[n+]5c4c4c(ccc[n+]4[Ru-4]546([n+]5ccccc5-c5cccc[n+]54)[n+]4ccccc4-c4cccc[n+]46)c3nc2c1 [Compound 5, [Ru(bpy)2(dmdppz)]^2+]
IC50 ([1]; single agent): 75.1 ± 12.2 µM
fold shift = IC50 (−OLAP)/IC50 (+OLAP) [1]: <0.8

SMILES: Cc1nc2c(O)cccc2c(=O)[nH]1 [NU1025]
Log P [5]: 0.47

SMILES: CNCc1ccc(-c2cc(-c3nc(-c4ccc(S(=O)(=O)C(C)C)cc4)cnc3N)on2)cc1 [Berzosertib, reference compound]
IC50 ([1]; Homo sapiens, single agent): 0.46 ± 0.01 µM
fold shift = IC50 (−OLAP)/IC50 (+OLAP) [1]: 1.7
Log P [5]: 3.16

SMILES: O=C(c1cc(Cc2n[nH]c(=O)c3ccccc23)ccc1F)N1CCN(C(=O)C2CC2)CC1 [Olaparib]
IC50 [11]: > 10 µM
IC50 ([1]; Homo sapiens, single agent): 80.9 ± 15 µM
SI MDA-MB-231 (IC50 MCF10A/IC50 cancer cell line), single agent ([1]; single agent, 72 h): >1.2
percentage of cells in quadrant Q3-1 [12]: 0.34%
percentage of cells in quadrant Q3-2 (apoptotic) [12]: 1.44%
percentage of cells in quadrant Q3-3 [12]: 82.66%
percentage of cells in quadrant Q3-4 (apoptotic) [12]: 15.56%
IC50 [6]: > 100 µM
pericardial edema (PE) ([7]; 96 hpf, 25 mg/L): 45.8% ± 17.7
spinal deformity (SD) ([7]; 96 hpf, 25 mg/L): 75.0% ± 23.6
yolk sac edema (YSE) ([7]; 96 hpf, 25 mg/L): 45.8% ± 29.5
level of resistance of MDA-MB-231R compared to parental MDA-MB-231 cells ([8]; clonogenic survival assay): 28 fold
IC50 [13]: 2.72 ± 0.45 µM
SI MCF7 (IC50 MCF10A/IC50 cancer cell line), single agent ([10]; 72 h): >1.4
IC50 [10]: 69.6 ± 6.3 µM

SMILES: C[C@@H]1COCCN1c1cc(C2([S@](C)(=N)=O)CC2)nc(-c2cc[nH]c3nccc2-3)n1 [Ceralasertib, reference compound]
IC50 ([1]; Homo sapiens, single agent): 4.4 ± 0.4 µM
fold shift = IC50 (−OLAP)/IC50 (+OLAP) [1]: 0.9
Log P [5]: 1.91

SMILES: Cc1cc(C)c2nc3c4ccc[n+]5c4c4c(ccc[n+]4[Ru-4]546([n+]5cc(C)ccc5-c5ccc(C)c[n+]54)[n+]4cc(C)ccc4-c4ccc(C)c[n+]46)c3nc2c1 [Compound 6, [Ru(5,5′dmb)2(dmdppz)]^2+]
IC50 ([1]; single agent): 87.4 ± 2.3 µM
fold shift = IC50 (−OLAP)/IC50 (+OLAP) [1]: 5.0

SMILES: N.N.[Cl][Pt][Cl] [cisplatin, reference compound]
IC50 ([1]; single agent): 35.3 ± 5.5 µM
